# Measurements: patent US8497385B2, “Bryostatin analogues, synthetic methods and uses” (The Board of Trustees of the Leland Stanford Junior …, priority 2007, dated 2013)
# What was measured:
# Type in all cases: cell-based, human
# SK-MEL-5 = experiment: NCI growth inhibition, SK-MEL-5 (Melanoma); details: SK-MEL-5, Melanoma
# HOP-92 = experiment: NCI growth inhibition, HOP-92 (NSC Lung); details: HOP-92, NSC Lung
# U251 = experiment: NCI growth inhibition, U251 (CNS); details: U251, CNS
# OVCAR-8 = experiment: NCI growth inhibition, OVCAR-8 (Ovarian); details: OVCAR-8, Ovarian
# CAKI-1 = experiment: NCI growth inhibition, CAKI-1 (Renal); details: CAKI-1, Renal
# EKVX = experiment: NCI growth inhibition, EKVX (NSC Lung); details: NSC Lung
# BT-549 = experiment: NCI growth inhibition, BT-549 (Breast); details: BT-549, Breast
# NCI-H322M = experiment: NCI growth inhibition, NCI-H322M (NSC Lung); details: NSC Lung
# SR = experiment: NCI growth inhibition, SR (Leukemia); details: Leukemia
# DU-145 = experiment: NCI growth inhibition, DU-145 (Prostate); details: DU-145, Prostate
# OVCAR-4 = experiment: NCI growth inhibition, OVCAR-4 (Ovarian); details: OVCAR-4, Ovarian
# OVCAR-5 = experiment: NCI growth inhibition, OVCAR-5 (Ovarian); details: OVCAR-5, Ovarian
# UACC-62 = experiment: NCI growth inhibition, UACC-62 (Melanoma); details: UACC-62, Melanoma
# A498 = experiment: NCI growth inhibition, A498 (Renal); details: A498, Renal
# SF-268 = experiment: NCI growth inhibition, SF-268 (CNS); details: SF-268, CNS
# SK-OV-3 = experiment: NCI growth inhibition, SK-OV-3 (Ovarian); details: SK-OV-3, Ovarian
# TK-10 = experiment: NCI growth inhibition, TK-10 (Renal); details: TK-10, Renal
# MDA-N = experiment: NCI growth inhibition, MDA-N (Breast)
# SNB-75 = experiment: NCI growth inhibition, SNB-75 (CNS); details: SNB-75, CNS
# HS 578T = experiment: NCI growth inhibition, HS 578T (Breast); details: Breast
# SN12C = experiment: NCI growth inhibition, SN12C (Renal); details: Renal
# MALME-3M = experiment: NCI growth inhibition, MALME-3M (Melanoma)
# SF-295 = experiment: NCI growth inhibition, SF-295 (CNS); details: SF-295, CNS
# PC-3 = experiment: NCI growth inhibition, PC-3 (Prostate); details: PC-3, Prostate
# HCC-2998 = experiment: NCI growth inhibition, HCC-2998 (Colon); details: HCC-2998, Colon
# NCI-H23 = experiment: NCI growth inhibition, NCI-H23 (NSC Lung)
# IGROVI = experiment: NCI growth inhibition, IGROVI (Ovarian); details: Ovarian
# SF-539 = experiment: NCI growth inhibition, SF-539 (CNS); details: SF-539, CNS
# HOP-62 = experiment: NCI growth inhibition, HOP-62 (NSC Lung)
# T-47D = experiment: NCI growth inhibition, T-47D (Breast); details: Breast
# RXF-393 = experiment: NCI growth inhibition, RXF-393 (Renal)
# RPMI-8226 = experiment: NCI growth inhibition, RPMI-8226 (Leukemia); details: RPMI-8226, Leukemia
# MI4 = experiment: NCI growth inhibition, MI4 (Melanoma); details: MI4, Melanoma
# NCI-H460 = experiment: NCI growth inhibition, NCI-H460 (NSC Lung); details: NCI-H460, NSC Lung
# A549/ATCC = experiment: NCI growth inhibition, A549/ATCC (NSC Lung); details: NSC Lung
# COLO 205 = experiment: NCI growth inhibition, COLO 205 (Colon); details: COLO 205, Colon
# KM12 = experiment: NCI growth inhibition, KM12 (Colon); details: KM12, Colon
# MDA-MB-231/ATCC = experiment: NCI growth inhibition, MDA-MB-231/ATCC (Breast); details: Breast
# SW-620 = experiment: NCI growth inhibition, SW-620 (Colon); details: SW-620, Colon
# UO-31 = experiment: NCI growth inhibition, UO-31 (Renal); details: UO-31, Renal
# MCF7 = experiment: NCI growth inhibition, MCF7 (Breast); details: MCF7, Breast
# CCRF-CEM = experiment: NCI growth inhibition, CCRF-CEM (Leukemia); details: Leukemia
# NCI-H226 = experiment: NCI growth inhibition, NCI-H226 (NSC Lung)
# LOX IMVI = experiment: NCI growth inhibition, LOX IMVI (Melanoma); details: Melanoma
# SK-MEL-28 = experiment: NCI growth inhibition, SK-MEL-28 (Melanoma); details: SK-MEL-28, Melanoma
# ACHN = experiment: NCI growth inhibition, ACHN (Renal); details: Renal
# HCT-116 = experiment: NCI growth inhibition, HCT-116 (Colon); details: HCT-116, Colon
# SNB-19 = experiment: NCI growth inhibition, SNB-19 (CNS); details: SNB-19, CNS
# HCT-15 = experiment: NCI growth inhibition, HCT-15 (Colon)
# HT29 = experiment: NCI growth inhibition, HT29 (Colon); details: HT29, Colon
# NCI/ADR-RES = experiment: NCI growth inhibition, NCI/ADR-RES (Breast)
# SK-MEL-2 = experiment: NCI growth inhibition, SK-MEL-2 (Melanoma); details: SK-MEL-2, Melanoma
# MOLT-4 = experiment: NCI growth inhibition, MOLT-4 (Leukemia); details: MOLT-4, Leukemia
# MDA-MB-435 = experiment: NCI growth inhibition, MDA-MB-435 (Breast); details: MDA-MB-435, Breast
# NCI-H522 = experiment: NCI growth inhibition, NCI-H522 (NSC Lung)
# 786-0 = experiment: NCI growth inhibition, 786-0 (Renal); details: 786-0, Renal
# K-562 = experiment: NCI growth inhibition, K-562 (Leukemia); details: K-562, Leukemia
# UACC-257 = experiment: NCI growth inhibition, UACC-257 (Melanoma); details: UACC-257, Melanoma
# OVCAR-3 = experiment: NCI growth inhibition, OVCAR-3 (Ovarian); details: OVCAR-3, Ovarian
# HL-60(TB) = tested on: HL-60(TB)
structure (smiles),measurement,setting,value
"CCC/C=C/C=C/C(=O)O[C@H]1/C(=C/C(=O)OC)C[C@H]2C[C@H]([C@@H](C)O)OC(=O)C[C@H](O)C[C@@H]3C[C@H](OC(C)=O)C(C)(C)[C@](O)(C[C@@H]4C/C(=C/C(=O)OC)C[C@H](/C=C/C(C)(C)[C@]1(O)O2)O4)O3 [Bryo-1, Bryostatin-1, reference compound]",GI50,SK-MEL-5,−5.70 log of molar concentration
same,GI50,HOP-92,−5.30 log of molar concentration
same,GI50,U251,−5.10 log of molar concentration
same,GI50,OVCAR-8,−5.10 log of molar concentration
same,GI50,CAKI-1,−5.40 log of molar concentration
same,GI50,EKVX,−5.30 log of molar concentration
same,GI50,BT-549,−5.10 log of molar concentration
same,GI50,NCI-H322M,−6.00 log of molar concentration
same,GI50,SR,>−5 log of molar concentration
same,GI50,DU-145,>−5 log of molar concentration
same,GI50,OVCAR-4,−5.50 log of molar concentration
same,GI50,OVCAR-5,>−5 log of molar concentration
same,GI50,UACC-62,−5.30 log of molar concentration
same,GI50,A498,>−5 log of molar concentration
same,GI50,SF-268,−5.10 log of molar concentration
same,GI50,SK-OV-3,−5.10 log of molar concentration
same,GI50,TK-10,>−5 log of molar concentration
same,GI50,MDA-N,−5.10 log of molar concentration
same,GI50,SNB-75,−5.50 log of molar concentration
same,GI50,HS 578T,−5.2 log of molar concentration
same,GI50,SN12C,−5.10 log of molar concentration
same,GI50,MALME-3M,−5.20 log of molar concentration
same,GI50,SF-295,−5.20 log of molar concentration
same,GI50,PC-3,−5.30 log of molar concentration
same,GI50,HCC-2998,−5.30 log of molar concentration
same,GI50,NCI-H23,>−5 log of molar concentration
same,GI50,IGROVI,−5.30 log of molar concentration
same,GI50,SF-539,>−5 log of molar concentration
same,GI50,HOP-62,>−5 log of molar concentration
same,GI50,T-47D,−5.20 log of molar concentration
same,GI50,RXF-393,−5.30 log of molar concentration
same,GI50,RPMI-8226,>−5 log of molar concentration
same,GI50,MI4,>−5 log of molar concentration
same,GI50,NCI-H460,−5.60 log of molar concentration
same,GI50,A549/ATCC,−5.20 log of molar concentration
same,GI50,COLO 205,−5.40 log of molar concentration
same,GI50,KM12,−5.20 log of molar concentration
same,GI50,MDA-MB-231/ATCC,−5.20 log of molar concentration
same,GI50,SW-620,−5.50 log of molar concentration
same,GI50,UO-31,−5.60 log of molar concentration
same,GI50,MCF7,−5.20 log of molar concentration
same,GI50,CCRF-CEM,−5.30 log of molar concentration
same,GI50,NCI-H226,>−5 log of molar concentration
same,GI50,LOX IMVI,−5.10 log of molar concentration
same,GI50,SK-MEL-28,−5.10 log of molar concentration
same,GI50,ACHN,−5.50 log of molar concentration
same,GI50,HCT-116,−5.30 log of molar concentration
same,GI50,SNB-19,>−5 log of molar concentration
same,GI50,HCT-15,>−5 log of molar concentration
same,GI50,HT29,−5.30 log of molar concentration
same,GI50,NCI/ADR-RES,>−5 log of molar concentration
same,GI50,SK-MEL-2,−5.20 log of molar concentration
same,GI50,MOLT-4,−5.50 log of molar concentration
same,GI50,MDA-MB-435,−5.10 log of molar concentration
same,GI50,NCI-H522,>−5 log of molar concentration
same,GI50,786-0,−5.20 log of molar concentration
same,GI50,K-562,−5.40 log of molar concentration
same,GI50,UACC-257,−5.10 log of molar concentration
same,GI50,OVCAR-3,−5.10 log of molar concentration
same,GI50,HL-60(TB),−5.70 log of molar concentration
